The text below walks through data of ChEMBL document CHEMBL1151840, “Synthetic oligoribonucleotides containing arabinonucleotides act as agonists of TLR7 and 8” (Bioorg Med Chem Lett, 2009).

Data set [1] deals with PBMC. The data set can be described thus: Stimulation of immune response in human PBMC assessed as induction of TNFalpha production at 150 ug/ml after 24 hrs. It is filed as functional, cell-based.
For data set [2], the species on record is Homo sapiens. The data set can be described thus: Stimulation of immune response in human pDC assessed as induction of MIP1alpha production at 150 ug/ml after 24 hrs. Format: functional.
Data set [3] deals with PBMC. In words: Stimulation of immune response in human PBMC assessed as induction of RANTES production at 150 ug/ml after 24 hrs. Format: functional, cell-based.
Data set [4] deals with PBMC. The data set can be described thus: Stimulation of immune response in human PBMC assessed as induction of IFNalpha production at 150 ug/ml after 24 hrs. Format: functional, cell-based.
In data set [5] the test system is PBMC. The data set can be described thus: Stimulation of immune response in human PBMC assessed as induction of IL1-beta production at 150 ug/ml after 24 hrs. It is filed as functional, cell-based.
Data set [6] is filed under the species Homo sapiens. The data set can be described thus: Stimulation of immune response in human pDC assessed as induction of IFNalpha production at 150 ug/ml after 24 hrs. Format: functional.
Data set [7] is filed under the species Homo sapiens. The data set can be described thus: Stimulation of immune response in human pDC assessed as induction of TNFalpha production at 150 ug/ml after 24 hrs. It is filed as functional.
The test system of data set [8] is PBMC. In words: Stimulation of immune response in human PBMC assessed as induction of IL10 production at 150 ug/ml after 24 hrs. Format: functional, cell-based.
Data set [9] deals with PBMC. In words: Stimulation of immune response in human PBMC assessed as induction of IL2R level at 150 ug/ml after 24 hrs. It is filed as functional, cell-based.
Data set [10] deals with PBMC. The data set can be described thus: Stimulation of immune response in human PBMC assessed as induction of IFN-gamma production at 150 ug/ml after 24 hrs. It is filed as functional, cell-based.
The subject of data set [11] is PBMC. The data set can be described thus: Stimulation of immune response in human PBMC assessed as induction of MCP1 production at 150 ug/ml after 24 hrs. It is filed as functional, cell-based.
The test system of data set [12] is PBMC. The data set can be described thus: Stimulation of immune response in human PBMC assessed as induction of IL12 production at 150 ug/ml after 24 hrs. Format: functional, cell-based.
The species entered for data set [13] is Homo sapiens. In words: Stimulation of immune response in human pDC assessed as induction of IL12 production at 150 ug/ml after 24 hrs. Format: functional.
The species named for data set [14] is Homo sapiens. The data set can be described thus: Stimulation of immune response in human pDC assessed as induction of IFN-gamma production at 150 ug/ml after 24 hrs. Format: functional.
The species named for data set [15] is Homo sapiens. In words: Stimulation of immune response in human pDC assessed as induction of MIP1beta production at 150 ug/ml after 24 hrs. It is filed as functional.
For data set [16], the system named is PBMC. The data set can be described thus: Stimulation of immune response in human PBMC assessed as induction of IL8 production at 150 ug/ml after 24 hrs. It is filed as functional, cell-based.
For data set [17], the target named is T1, Toll-like receptor 7 (Homo sapiens) (UniProt Q9NYK1).
T1 sequence (whole entry): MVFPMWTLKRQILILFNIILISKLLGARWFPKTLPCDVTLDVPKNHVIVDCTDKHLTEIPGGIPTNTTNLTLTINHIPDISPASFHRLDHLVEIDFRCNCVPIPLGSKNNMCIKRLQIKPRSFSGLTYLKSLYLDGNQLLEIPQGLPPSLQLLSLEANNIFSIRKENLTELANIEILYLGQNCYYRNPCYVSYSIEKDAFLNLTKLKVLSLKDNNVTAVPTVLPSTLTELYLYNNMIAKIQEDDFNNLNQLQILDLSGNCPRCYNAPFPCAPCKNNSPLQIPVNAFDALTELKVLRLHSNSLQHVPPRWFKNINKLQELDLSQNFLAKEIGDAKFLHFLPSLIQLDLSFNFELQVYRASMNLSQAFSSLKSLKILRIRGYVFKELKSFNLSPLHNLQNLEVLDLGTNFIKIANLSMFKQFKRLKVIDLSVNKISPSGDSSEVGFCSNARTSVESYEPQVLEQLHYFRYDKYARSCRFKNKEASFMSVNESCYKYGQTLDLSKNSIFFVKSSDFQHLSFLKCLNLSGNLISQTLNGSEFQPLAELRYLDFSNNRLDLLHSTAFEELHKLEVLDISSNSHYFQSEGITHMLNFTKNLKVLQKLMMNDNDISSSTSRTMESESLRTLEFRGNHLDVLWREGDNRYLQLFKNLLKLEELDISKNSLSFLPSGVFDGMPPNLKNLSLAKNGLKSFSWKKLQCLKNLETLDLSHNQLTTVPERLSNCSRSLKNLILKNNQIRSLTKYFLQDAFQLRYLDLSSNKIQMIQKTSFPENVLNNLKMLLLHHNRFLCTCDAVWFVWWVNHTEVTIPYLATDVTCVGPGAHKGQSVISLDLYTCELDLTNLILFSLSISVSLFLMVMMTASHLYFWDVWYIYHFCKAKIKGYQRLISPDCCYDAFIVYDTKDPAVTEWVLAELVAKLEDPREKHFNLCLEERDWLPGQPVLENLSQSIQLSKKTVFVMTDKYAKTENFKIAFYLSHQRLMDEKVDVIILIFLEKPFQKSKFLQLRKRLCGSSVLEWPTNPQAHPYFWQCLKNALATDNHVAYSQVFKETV
In words: Agonist activity at human TLR7 expressed in HEK293XL cells assessed as NF-kappaB activation after 18 hrs. It is filed as functional, cell-based.

A further data set concerns Mus musculus. The data set can be described thus: Stimulation of immune response in C57BL/6 mouse assessed as induction of serum IL12 production at 50 mg/kg, sc after 2 hrs by luminex multiplex assay. It is filed as functional, organism-based. Further details: dose 50 mg/kg.
A short description of data set [18]: Stability in human serum assessed as full-length compound remaining after 10 mins by anion-exchange HPLC. It is filed as ADME, cell-free. To be noted: read-out: Stability.
Data set [19] concerns PBMC. The data set can be described thus: Stimulation of immune response in human PBMC assessed as induction of MIP1beta production at 150 ug/ml after 24 hrs. Format: functional, cell-based.
In data set [20] the target is T2, Toll-like receptor 8 (Homo sapiens) (UniProt Q9NR97).
T2 sequence (whole entry): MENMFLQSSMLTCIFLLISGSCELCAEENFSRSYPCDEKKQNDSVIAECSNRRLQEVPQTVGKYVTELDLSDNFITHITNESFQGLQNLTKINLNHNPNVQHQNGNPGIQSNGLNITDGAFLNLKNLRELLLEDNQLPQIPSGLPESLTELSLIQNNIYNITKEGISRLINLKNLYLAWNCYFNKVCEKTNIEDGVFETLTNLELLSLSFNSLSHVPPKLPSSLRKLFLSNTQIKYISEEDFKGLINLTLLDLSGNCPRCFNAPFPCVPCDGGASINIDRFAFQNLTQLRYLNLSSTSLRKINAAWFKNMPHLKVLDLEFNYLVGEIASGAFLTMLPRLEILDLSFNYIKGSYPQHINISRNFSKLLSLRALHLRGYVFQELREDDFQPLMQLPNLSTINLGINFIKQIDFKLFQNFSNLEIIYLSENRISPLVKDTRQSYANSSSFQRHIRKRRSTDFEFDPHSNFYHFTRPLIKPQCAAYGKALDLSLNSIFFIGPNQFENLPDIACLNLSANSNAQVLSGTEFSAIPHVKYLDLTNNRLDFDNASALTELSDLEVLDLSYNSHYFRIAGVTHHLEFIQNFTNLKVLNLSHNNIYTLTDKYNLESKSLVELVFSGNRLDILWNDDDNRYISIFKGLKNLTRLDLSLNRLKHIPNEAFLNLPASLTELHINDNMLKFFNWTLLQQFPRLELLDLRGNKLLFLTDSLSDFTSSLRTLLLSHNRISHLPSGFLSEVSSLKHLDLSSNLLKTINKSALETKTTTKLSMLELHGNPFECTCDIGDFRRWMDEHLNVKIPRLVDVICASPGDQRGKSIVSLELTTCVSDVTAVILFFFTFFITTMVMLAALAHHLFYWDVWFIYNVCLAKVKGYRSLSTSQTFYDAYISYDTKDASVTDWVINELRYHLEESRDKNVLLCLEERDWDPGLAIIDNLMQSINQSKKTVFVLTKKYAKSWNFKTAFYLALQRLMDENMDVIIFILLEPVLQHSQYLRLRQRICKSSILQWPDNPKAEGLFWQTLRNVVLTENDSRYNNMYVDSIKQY
In words: Agonist activity at human TLR8 expressed in HEK293XL cells assessed as NF-kappaB activation after 18 hrs. Format: functional, cell-based.

Data set [21] concerns PBMC. The data set can be described thus: Stimulation of immune response in human PBMC assessed as induction of MIP1alpha production at 150 ug/ml after 24 hrs. It is filed as functional, cell-based.

Activity calls are given as the source filed them. The rule behind the calls is not given here.

Turning to `Nc1ccn([C@@H]2O[C@H](COP(O)(=S)O[C@H]3[C@@H](O)[C@H](n4cnc5c(=O)[nH]c(N)nc54)O[C@@H]3COP(O)(=S)O[C@H]3[C@@H](O)[C@H](n4ccc(=O)[nH]c4=O)O[C@@H]3CO)[C@@H](OP(O)(=S)OC[C@H]3O[C@@H](n4ccc(=O)[nH]c4=O)[C@H](O)[C@@H]3OP(O)(=S)OC[C@H]3O[C@@H](n4cnc5c(=O)[nH]c(N)nc54)[C@H](O)[C@@H]3OP(O)(=S)OC[C@H]3O[C@@H](n4ccc(N)nc4=O)[C@H](O)[C@@H]3OP(O)(=S)OC[C@H]3O[C@@H](n4ccc(=O)[nH]c4=O)[C@H](O)[C@@H]3OP(O)(=S)OC[C@H]3O[C@@H](n4ccc(=O)[nH]c4=O)[C@H](O)[C@@H]3OP(O)(=S)OC[C@H]3O[C@@H](n4cnc5c(=O)[nH]c(N)nc54)[C@H](O)[C@@H]3OP(O)(=S)OC[C@H]3O[C@@H](n4ccc(=O)[nH]c4=O)[C@H](O)[C@@H]3OP(O)(=S)OC[C@H]3O[C@@H](n4cnc5c(=O)[nH]c(N)nc54)[C@H](O)[C@@H]3OP(O)(=S)OCC(O)COP(O)(=S)O[C@H]3[C@@H](O)[C@H](n4cnc5c(=O)[nH]c(N)nc54)O[C@@H]3COP(O)(=S)O[C@H]3[C@@H](O)[C@H](n4ccc(=O)[nH]c4=O)O[C@@H]3COP(O)(=S)O[C@H]3[C@@H](O)[C@H](n4cnc5c(=O)[nH]c(N)nc54)O[C@@H]3COP(O)(=S)O[C@H]3[C@@H](O)[C@H](n4ccc(=O)[nH]c4=O)O[C@@H]3COP(O)(=S)O[C@H]3[C@@H](O)[C@H](n4ccc(=O)[nH]c4=O)O[C@@H]3COP(O)(=S)O[C@H]3[C@@H](O)[C@H](n4ccc(N)nc4=O)O[C@@H]3COP(O)(=S)O[C@H]3[C@@H](O)[C@H](n4cnc5c(=O)[nH]c(N)nc54)O[C@@H]3COP(O)(=S)O[C@H]3[C@@H](O)[C@H](n4ccc(=O)[nH]c4=O)O[C@@H]3COP(O)(=S)O[C@H]3[C@@H](O)[C@H](n4ccc(N)nc4=O)O[C@@H]3COP(O)(=S)O[C@H]3[C@@H](O)[C@H](n4cnc5c(=O)[nH]c(N)nc54)O[C@@H]3COP(O)(=S)O[C@H]3[C@@H](O)[C@H](n4ccc(=O)[nH]c4=O)O[C@@H]3CO)[C@H]2O)c(=O)n1` (some centres not stated), the result in the data set on PBMC [1], in the data set listed under Homo sapiens [2], with PBMC [3], in the data set on PBMC [4], in the data set on PBMC [5] and in the data set filed under Homo sapiens [7] was Active. In addition, the outcome with PBMC [8], with PBMC [9], in the data set with PBMC [10], in the data set on PBMC [11], in the data set on PBMC [12] and in the data set filed under Homo sapiens [13] was Active. Moreover, the outcome in the data set filed under Homo sapiens [14], in the data set listed under Homo sapiens [15], in the data set with PBMC [16], with PBMC [19] and with PBMC [21] was Active. The outcome (in the data set listed under Homo sapiens [6]; in data set [17]; with Mus musculus) was inactive. Moreover, the remaining at 10 min in data set [18] is 75%. The Activity entry in data set [20] is “Dose-dependent effect”.
